Test results reported in PubChem BioAssay (NCI).
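At the GI50, growth is halved. At the TGI there is no net growth.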

Key:
Test in all cases: growth of human tumour cells (NCI), 384-well format
786-0 renal = tested on: 786-0 renal
A498 renal = tested on: A498 renal
A549 NSCLC = tested on: A549 NSCLC
ACHN renal = tested on: ACHN renal
CAKI-1 renal = tested on: CAKI-1 renal
CCRF-CEM leukemia = tested on: CCRF-CEM leukemia
COLO 205 colon = tested on: COLO 205 colon
DU-145 prostate = tested on: DU-145 prostate
EKVX NSCLC = tested on: EKVX NSCLC
HCC-2998 colon = tested on: HCC-2998 colon
HCT-116 colon = tested on: HCT-116 colon
HCT-15 colon = tested on: HCT-15 colon
HL-60(TB) leukemia = tested on: HL-60(TB) leukemia
HOP-62 NSCLC = tested on: HOP-62 NSCLC
HOP-92 NSCLC = tested on: HOP-92 NSCLC
HS 578T breast = tested on: HS 578T breast
HT29 colon = tested on: HT29 colon
IGROV1 ovarian = tested on: IGROV1 ovarian
K-562 leukemia = tested on: K-562 leukemia
KM12 colon = tested on: KM12 colon
LOX IMVI melanoma = tested on: LOX IMVI melanoma
M14 melanoma = tested on: M14 melanoma
MCF7 breast = tested on: MCF7 breast
MDA-MB-231 breast = tested on: MDA-MB-231 breast
MDA-MB-435 melanoma = tested on: MDA-MB-435 melanoma
MDA-MB-468 breast = tested on: MDA-MB-468 breast
MOLT-4 leukemia = tested on: MOLT-4 leukemia
NCI-H226 lung = tested on: NCI-H226 lung
NCI-H23 lung = tested on: NCI-H23 lung
NCI-H322M lung = tested on: NCI-H322M lung
NCI-H460 NSCLC = tested on: NCI-H460 NSCLC
NCI-H522 lung = tested on: NCI-H522 lung
NCI/ADR-RES ovarian = tested on: NCI/ADR-RES ovarian
OVCAR-3 ovarian = tested on: OVCAR-3 ovarian
OVCAR-4 ovarian = tested on: OVCAR-4 ovarian
OVCAR-5 ovarian = tested on: OVCAR-5 ovarian
OVCAR-8 ovarian = tested on: OVCAR-8 ovarian
PC-3 prostate = tested on: PC-3 prostate
RPMI-8226 leukemia = tested on: RPMI-8226 leukemia
SF-268 CNS = tested on: SF-268 CNS
SF-295 CNS = tested on: SF-295 CNS
SF-539 CNS = tested on: SF-539 CNS
SK-MEL-28 melanoma = tested on: SK-MEL-28 melanoma
SK-MEL-5 melanoma = tested on: SK-MEL-5 melanoma
SK-OV-3 ovarian = tested on: SK-OV-3 ovarian
SN12C renal = tested on: SN12C renal
SNB-19 CNS = tested on: SNB-19 CNS
SNB-75 CNS = tested on: SNB-75 CNS
SW-620 colon = tested on: SW-620 colon
T-47D breast = tested on: T-47D breast
TK-10 renal = tested on: TK-10 renal
U251 glioblastoma = tested on: U251 glioblastoma
UACC-257 melanoma = tested on: UACC-257 melanoma
UACC-62 melanoma = tested on: UACC-62 melanoma
UO-31 renal = tested on: UO-31 renal
BT-549 breast = tested on: BT-549 breast
MALME-3M melanoma = tested on: MALME-3M melanoma
RXF 393 renal = tested on: RXF 393 renal
SK-MEL-2 melanoma = tested on: SK-MEL-2 melanoma
SR leukemia = tested on: SR leukemia

## CC1(C)CC(=O)c2c(C(F)(F)F)nn(-c3ccc(C(N)=O)c(NC4CCC(OC(=O)CN)CC4)c3)c2C1 (stereo unspecified)
786-0 renal
  GI50: 43.9 nM
  TGI: 11700 nM
A498 renal
  GI50: 67.2 nM
  TGI: 15100 nM
A549 NSCLC
  GI50: 29 nM
  TGI: 11000 nM
ACHN renal
  GI50: 62 nM
  TGI: 18100 nM
CAKI-1 renal
  GI50: 67.9 nM
  TGI: 19600 nM
CCRF-CEM leukemia
  GI50: 18.9 nM
  TGI: 53.3 nM
COLO 205 colon
  GI50: 13.7 nM
  TGI: 66.7 nM
DU-145 prostate
  GI50: 48.2 nM
  TGI: 975 nM
EKVX NSCLC
  GI50: 83.1 nM
  TGI: 15600 nM
HCC-2998 colon
  GI50: 21.4 nM
  TGI: 87.4 nM
HCT-116 colon
  GI50: 41.4 nM
  TGI: 13000 nM
HCT-15 colon
  GI50: 88.8 nM
  TGI: 14200 nM
HL-60(TB) leukemia
  GI50: 19.2 nM
  TGI: 35.4 nM
HOP-62 NSCLC
  GI50: 41 nM
  TGI: 20000 nM
HOP-92 NSCLC
  GI50: 28.2 nM
  TGI: 89.5 nM
HS 578T breast
  GI50: 32.1 nM
  TGI: 222 nM
HT29 colon
  GI50: 24.6 nM
  TGI: 11500 nM
IGROV1 ovarian
  GI50: 18.9 nM
  TGI: 74.3 nM
K-562 leukemia
  GI50: 27.4 nM
  TGI: 10200 nM
KM12 colon
  GI50: 26.6 nM
  TGI: 827 nM
LOX IMVI melanoma
  GI50: 17.4 nM
  TGI: 33.6 nM
M14 melanoma
  GI50: 31.4 nM
  TGI: 12000 nM
MCF7 breast
  GI50: 25.4 nM
  TGI: 843 nM
MDA-MB-231 breast
  GI50: 22.7 nM
  TGI: 71.7 nM
MDA-MB-435 melanoma
  GI50: 67.4 nM
  TGI: 38100 nM
MDA-MB-468 breast
  GI50: 21 nM
  TGI: 47.6 nM
MOLT-4 leukemia
  GI50: 11.9 nM
  TGI: 25.3 nM
NCI-H226 lung
  GI50: 30.3 nM
  TGI: 229 nM
NCI-H23 lung
  GI50: 21.2 nM
  TGI: 68.3 nM
NCI-H322M lung
  GI50: 44.2 nM
  TGI: 20800 nM
NCI-H460 NSCLC
  GI50: 22.1 nM
  TGI: 57.3 nM
NCI-H522 lung
  GI50: 21.2 nM
  TGI: 49.3 nM
NCI/ADR-RES ovarian
  GI50: 2350 nM
  TGI: 6770 nM
OVCAR-3 ovarian
  GI50: 25.3 nM
  TGI: 88.5 nM
OVCAR-4 ovarian
  GI50: 17100 nM
  TGI: > 100000 nM
OVCAR-5 ovarian
  GI50: 53.6 nM
  TGI: 30200 nM
OVCAR-8 ovarian
  GI50: 21.9 nM
  TGI: 48.2 nM
PC-3 prostate
  GI50: 33.6 nM
  TGI: 135 nM
RPMI-8226 leukemia
  GI50: 51.2 nM
  TGI: 241 nM
SF-268 CNS
  GI50: 12.2 nM
  TGI: 36.5 nM
SF-295 CNS
  GI50: 37.3 nM
  TGI: 140 nM
SF-539 CNS
  GI50: 18.6 nM
  TGI: 43.1 nM
SK-MEL-28 melanoma
  GI50: 46.5 nM
  TGI: 19300 nM
SK-MEL-5 melanoma
  GI50: 39.6 nM
  TGI: 14000 nM
SK-OV-3 ovarian
  GI50: 41.5 nM
  TGI: 29500 nM
SN12C renal
  GI50: 29.6 nM
  TGI: 98.8 nM
SNB-19 CNS
  GI50: 47.5 nM
  TGI: 30000 nM
SNB-75 CNS
  GI50: 112 nM
  TGI: 506 nM
SW-620 colon
  GI50: 25.8 nM
  TGI: 79.4 nM
T-47D breast
  GI50: 19.5 nM
  TGI: 65 nM
TK-10 renal
  GI50: 51 nM
  TGI: 5310 nM
U251 glioblastoma
  GI50: 30.4 nM
  TGI: 95.2 nM
UACC-257 melanoma
  GI50: 52.8 nM
  TGI: 21200 nM
UACC-62 melanoma
  GI50: 29.7 nM
  TGI: 129 nM
UO-31 renal
  GI50: 119 nM
  TGI: 16300 nM

## CC(C)c1cc(-c2n[nH]c(=O)n2-c2ccc3c(ccn3C)c2)c(O)cc1O
786-0 renal
  GI50: < 10 nM
  TGI: 78.1 nM
A498 renal
  GI50: 26.1 nM
  TGI: 17200 nM
A549 NSCLC
  GI50: < 10 nM
  TGI: 14000 nM
ACHN renal
  GI50: < 10 nM
  TGI: > 100000 nM
BT-549 breast
  GI50: < 10 nM
  TGI: < 10 nM
CAKI-1 renal
  GI50: 19.5 nM
  TGI: 18000 nM
CCRF-CEM leukemia
  GI50: < 10 nM
  TGI: 15.2 nM
COLO 205 colon
  GI50: < 10 nM
  TGI: 56.7 nM
EKVX NSCLC
  GI50: 11.8 nM
  TGI: 76.3 nM
HCC-2998 colon
  GI50: < 10 nM
  TGI: 15.6 nM
HCT-116 colon
  GI50: 18.8 nM
  TGI: 10500 nM
HCT-15 colon
  GI50: < 10 nM
  TGI: 13100 nM
HL-60(TB) leukemia
  GI50: < 10 nM
  TGI: < 10 nM
HOP-92 NSCLC
  GI50: 11.8 nM
  TGI: 36.3 nM
HS 578T breast
  GI50: < 10 nM
  TGI: 61.5 nM
HT29 colon
  GI50: 36.4 nM
  TGI: 13400 nM
IGROV1 ovarian
  GI50: < 10 nM
  TGI: 21.4 nM
K-562 leukemia
  GI50: < 10 nM
  TGI: 27 nM
KM12 colon
  GI50: < 10 nM
  TGI: 84.9 nM
LOX IMVI melanoma
  GI50: < 10 nM
  TGI: 20.7 nM
M14 melanoma
  GI50: < 10 nM
  TGI: 2690 nM
MALME-3M melanoma
  GI50: < 10 nM
  TGI: < 10 nM
MCF7 breast
  GI50: < 10 nM
  TGI: 16400 nM
MDA-MB-231 breast
  GI50: 19.1 nM
  TGI: 72 nM
MDA-MB-435 melanoma
  GI50: < 10 nM
  TGI: 22600 nM
MDA-MB-468 breast
  GI50: < 10 nM
  TGI: < 10 nM
MOLT-4 leukemia
  GI50: < 10 nM
  TGI: < 10 nM
NCI-H226 lung
  GI50: 46.5 nM
  TGI: 603 nM
NCI-H23 lung
  GI50: < 10 nM
  TGI: 23.8 nM
NCI-H322M lung
  GI50: 19.9 nM
  TGI: 16200 nM
NCI-H460 NSCLC
  GI50: < 10 nM
  TGI: < 10 nM
NCI-H522 lung
  GI50: < 10 nM
  TGI: < 10 nM
NCI/ADR-RES ovarian
  GI50: 22.6 nM
  TGI: 69.1 nM
OVCAR-4 ovarian
  GI50: < 10 nM
  TGI: > 100000 nM
OVCAR-5 ovarian
  GI50: 21.8 nM
  TGI: 13500 nM
PC-3 prostate
  GI50: 10.2 nM
  TGI: 52.7 nM
RPMI-8226 leukemia
  GI50: < 10 nM
  TGI: 12.9 nM
RXF 393 renal
  GI50: < 10 nM
  TGI: 11500 nM
SF-268 CNS
  GI50: 15.4 nM
  TGI: 28400 nM
SF-295 CNS
  GI50: 17 nM
  TGI: 46.6 nM
SF-539 CNS
  GI50: < 10 nM
  TGI: < 10 nM
SK-MEL-2 melanoma
  GI50: < 10 nM
  TGI: < 10 nM
SK-MEL-5 melanoma
  GI50: < 10 nM
  TGI: 3690 nM
SK-OV-3 ovarian
  GI50: 12.3 nM
  TGI: 2440 nM
SN12C renal
  GI50: < 10 nM
  TGI: 36.7 nM
SNB-19 CNS
  GI50: 13.4 nM
  TGI: 74.5 nM
SNB-75 CNS
  GI50: < 10 nM
  TGI: 46 nM
SR leukemia
  GI50: < 10 nM
  TGI: < 10 nM
T-47D breast
  GI50: 28.2 nM
  TGI: 1570 nM
U251 glioblastoma
  GI50: < 10 nM
  TGI: 24.3 nM
UACC-257 melanoma
  GI50: 42.4 nM
  TGI: 22600 nM
UACC-62 melanoma
  GI50: < 10 nM
  TGI: 31.6 nM
UO-31 renal
  GI50: < 10 nM
  TGI: 11800 nM
